In patent publication US6277845A, “Hydrazono-benzazulene derivatives, pharmaceutical compositions and intermediates” (Aventis Pharma S.A., priority 1997, dated 2001):
Structures can show the parent of a compound that is named as a salt.

Experiments:
human αvβ3 receptor = human αvβ3 receptor (Homo sapiens, UniProt P05106+P06756); assay: Bond displacement / binding competition test: Vitronectin/Vitronectin Receptor (αvβ3), plate assay; details: human vitronectin coated plates, 3 hours at ambient temperature, read-out: Binding competition test Vn/VR (αvβ3) IC50
Experimental: Pharmacological Study of the Products of the Invention 1--Study by the Products of the Invention of the Bond Displacement: Vitronectin/Vitronectin Receptor (αvβ3) 96-well MaxiSorp plates are coated overnight at 4° C., with 100 μl of human Vitronectin (cf Yatohgo et al. Cell., Structure and fraction 13: 281-292 (1988)) at 2 μg/ml, (Dilution in coating buffer).
The next day, the wells are emptied and the ligands (Vitronectin) are then fixed (see fixation buffer) for 1 hour at ambient temperature under gentle agitation.
The wells are washed six times (see washing buffer), then the following are added per well and in this order:
40 μl of incubation buffer, 10 μl of the dilution of the product to be tested, (the products are diluted in a 50/50 mixture of DMSO-H2 O) 50 μl of human αvβ 3 receptor (cf Pytela et al. Methods Enzymol (1987) 144:475) (dilution in incubation buffer, adapted according to the batch of receptor and according to the ligand).
The ligand, the human αvβ3 receptor and the products to be studied are incubated for 3 hours at ambient temperature under gentle agitation.
The wells are again washed six times, then incubated for 2 hours at ambient temperature under gentle agitation, in the presence of 100 μl of 4B12-HRP antibody, anti-receptor coupled to a peroxidase (the 4B12-HRP antibody is diluted in incubation buffer. The dilution is adapted according to the batch of receptor).
The wells are then washed six times before measurement of ligand-receptor bond is carried out using a peroxidase developer kit (TMB Microwell Peroxidase Substrate System Kirkegaard: Ref. cat. 50-76-00).
This kit contains a flask A of substrate (3,3', 5,5'-tetramethylbenzidine at 0.4 g/l) and a flask B (H2 O2 at 0.02% in Citrate/Citric acid buffer). Extemporaneously, one volume of A is mixed with one volume of B, then the reaction mixture is distributed at the rate of 100 µl/well. The enzymatic reaction develops in 12' for Vitronectin/αvβ3, then its development is stopped by the addition of 100 μl of 1M phosphoric acid.
The optical density is measured at 450 nm. […]
coating buffer: 0.05 M Carbonate, NaOH pH 9.6 fixation buffer: PBS containing 0.5% of BSA (pH 7.4) washing buffer: PBS containing 0.05% of Tween 20 (pH 7.4)
The following curve is plotted: the percentage of bond of human vitronectin as a function of the logarithm of the concentration of each product tested.
For each product the IC50 is determined according to the following formula:
BO=Maximum bond in the absence of any product
Bmin=Minimum bond in the presence of the highest concentration of product.

bone resorption [1] = details: Sato et al.; cited from earlier work
bone resorption [2] = details: in vivo in the rat, Fisher et al.; cited from earlier work
osteoclasts = details: cited from earlier work

Row | Molecule | IC50 (human αvβ3 receptor) | inhibition of bone resorption in tissues cultured in vitro (bone resorption [1]) | inhibition of bone resorption in vivo (bone resorption [2]) | inhibition of the adhesion of the osteoclasts to bone (osteoclasts)
1 | COc1c(SCCC(NC(=O)OCc2ccccc2)C(=O)O)cc2c(c1OC)C1=C(CCC1)C(=NNC1=NCCN1)CC2 (racemic) [Example 1, S-[4-[(4,5-dihydro-1H-imidazol-2-yl)hydrazono]-9,10-dimethoxy-1,2,3,4,5,6-hexahydro-8-benz[e]azulenyl]-N-[(phenylmethoxy)carbonyl]-DL-homocysteine] | 40 nM | – | – | –
2 | Echistatin | – | powerful inhibitor of bone resorption | powerful inhibitor of bone resorption | inhibitor of the adhesion of the osteoclasts to bone

Continued, in another order:

Row | IC50 (human αvβ3 receptor) | Molecule | inhibition of bone resorption in tissues cultured in vitro (bone resorption [1]) | inhibition of bone resorption in vivo (bone resorption [2]) | inhibition of the adhesion of the osteoclasts to bone (osteoclasts)
3 | 30 nM | O=C(NC(CCSc1ccc2c(c1)CCC(=NN=C1NCCN1)C1=C2CCC1)C(=O)O)OCc1ccccc1 (racemic) [Example 4, S-[4-[(2-imidazolidinylidene)hydrazono]-1,2,3,4,5,6-hexahydro-8-benz[e]azulenyl]-N-[(phenylmethoxy)carbonyl]-DL-homocysteine] | – | – | –
4 | 33 nM | O=C(NC(CCS(=O)(=O)c1ccc2c(c1)CCC(=NNC1=NCCN1)C1=C2CCC1)C(=O)O)OCc1ccccc1 (stereo not shown) [Example 5, hydrochloride of 4-[[4-[(2-imidazoli-dinylidene)hydrazono]-1,2,3,4,5,6-hexahydro-8-benz[e]azulenyl]sulphonyl]-2-[[(phenylmethoxy)carbonyl]amino]-butanoic acid] | – | – | –
5 | 230 nM | O=C(NC(CC[S+]([O-])c1ccc2c(c1)CCC(=NN=C1NCCN1)C1=C2CCC1)C(=O)O)OCc1ccccc1 (stereo not shown) [Example 6, 4-[[4-[(2-imidazolidinylidene)hydrazono]-1,2,3,4,5,6-hexahydro-8-benz[e]azulenyl]sulphinyl]-2-[[(phenylmethoxy)carbonyl]amino]-butanoic acid] | – | – | –
